Measured values as given in patent US12559474B2, “Triazine derivatives having virus replication inhibitory activity and pharmaceutical composition comprising the same” (priority 2021, dated 2026).
Read-outs that look alike come from different tables or passages of the source.

What was measured:
SARS-CoV-2 3CL protease = SARS-CoV-2 3CL protease (Severe acute respiratory syndrome coronavirus 2, UniProt P0DTD1); experiment: biochemical; details: 50% SARS-CoV-2 3CL protease inhibitory concentration, read-out: IC50
SARS-CoV-2 = experiment: microbe, parasite or virus in culture; type: cell-based; details: for EC50: 50% SARS-CoV-2 infected cell death inhibitory concentration, VeroE6/TMPRSS2 cells, 3 days culture
[1] = Severe acute respiratory syndrome coronavirus 2, VeroE6/TMPRSS2, 72 h, class symbols
[2] = Severe acute respiratory syndrome coronavirus 2, VeroE6/TMPRSS2, 72 h, CellTiter-Glo 2.0

| Compound | IC50 (SARS-CoV-2 3CL protease; given as class symbols) [nM] | EC50 (SARS-CoV-2; [1]) [nM] | further results |
| --- | --- | --- | --- |
| CC(C)n1cc2cc(Nc3nc(=O)n(-c4cncc5ccccc45)c(=O)n3Cc3ccc(F)c(C#N)c3)ccc2n1 [II-0168] | < 100 | < 1000 | – |
| Cc1cncc(-n2c(=O)nc(Nc3cc4cn(C)nc4cc3C)n(Cc3ccc(F)c(C#N)c3)c2=O)c1 [Compound I-0385] | < 100 | < 1000 | – |
| Cn1cnc(Cn2c(=O)nc(Nc3cc4oc(N)nc4cc3Cl)n(Cc3cc(F)c(F)c(Cl)c3)c2=O)n1 [II-0508] | < 100 | 1000 to 10000 | – |
| Cc1cncc(-n2c(=O)nc(Nc3ccc4nn(CC(F)F)cc4c3)n(Cc3cc(C#N)ccc3C)c2=O)c1 [II-0521] | – | – | IC50 (SARS-CoV-2 3CL protease; RapidFire MS): 3.4 nM; EC50 (SARS-CoV-2; [2]): 220 nM |
| Cc1cc(Cn2cc3cc(Nc4nc(=O)n(Cc5ccc[nH]c5=O)c(=O)n4Cc4cc(F)c(F)c(F)c4)c(Cl)cc3n2)no1 [II-0348] | < 100 | 1000 to 10000 | – |
| Cc1cncc(-n2c(=O)nc(Nc3ccc4nc(C)oc4c3)n(Cc3ccc(F)c(C#N)c3)c2=O)c1 [II-0105] | < 100 | < 1000 | – |
| Cn1cc2cc(Nc3nc(=O)n(-c4cncc(C#N)c4)c(=O)n3Cc3ccc(F)c(C#N)c3)ccc2n1 [II-0389] | – | – | IC50 (SARS-CoV-2 3CL protease; RapidFire MS): 45 nM; EC50 (SARS-CoV-2; [2]): 4400 nM |
| Cc1cncc(-n2c(=O)nc(Nc3cc4c(F)n(C)nc4cc3Cl)n(Cc3cc(F)c(F)c(F)c3)c2=O)c1 [II-0464] | < 100 | < 1000 | – |
| Cn1cnc(Cn2c(=O)nc(Nc3cc4sc(NCC(F)F)nc4cc3Cl)n(Cc3cc(F)c(F)cc3F)c2=O)n1 [II-0500] | < 100 | 1000 to 10000 | – |
| Cc1cncc(-n2c(=O)nc(Nc3ccc4oc(C)c(C)c4c3)n(Cc3ccc(F)c(C#N)c3)c2=O)c1 [II-0195] | < 100 | 1000 to 10000 | – |
| O=c1[nH]cccc1Cn1c(=O)nc(Nc2cc3cn(C(F)F)nc3cc2Cl)n(Cc2cc(F)c(F)c(F)c2)c1=O [Compound I-0357] | < 100 | 1000 to 10000 | – |
| Cn1cnc(Cn2c(=O)nc(Nc3cc4cn(Cc5ccccn5)nc4cc3Cl)n(Cc3cc(Cl)c(F)cc3F)c2=O)n1 [II-0005] | < 100 | 1000 to 10000 | – |
| CNc1nc2cc(F)c(Nc3nc(=O)n(-c4cncc(C)c4)c(=O)n3Cc3cc(C#N)ccc3C)cc2s1 [II-0419] | < 100 | < 1000 | – |
| Cn1cnc(Cn2c(=O)nc(Nc3cc4cn(CC(=O)OC(C)(C)C)nc4cc3Cl)n(Cc3cc(Cl)c(F)cc3F)c2=O)n1 [II-0309] | < 100 | 1000 to 10000 | – |
| Cc1cncc(-n2c(=O)nc(Nc3cc4cn(C)nc4cc3Cl)n(Cc3ccc(F)c(C4CC4)c3)c2=O)c1 [II-0595] | – | – | IC50 (SARS-CoV-2 3CL protease; RapidFire MS): 530 nM; EC50 (SARS-CoV-2; [2]): 8220 nM |
| Cc1cncc(-n2c(=O)nc(Nc3cc4cn(CC(F)F)nc4cc3Cl)n(Cc3ccc(F)c(C#N)c3)c2=O)c1 [II-0089] | – | – | IC50 (SARS-CoV-2 3CL protease; RapidFire MS): 3.6 nM; EC50 (SARS-CoV-2; [2]): 182 nM |
| Cc1cncc(-n2c(=O)nc(Nc3ccc4nn(CC(F)(F)F)cc4c3)n(Cc3cc(C#N)ccc3Cl)c2=O)c1 [II-0001] | – | – | IC50 (SARS-CoV-2 3CL protease; RapidFire MS): 3.4 nM; EC50 (SARS-CoV-2; [2]): 466 nM |
| Cn1cc2cc(Nc3nc(=O)n(Cc4ccc[nH]c4=O)c(=O)n3Cc3cc(F)cc(Cl)c3)c(Cl)cc2n1 [Compound I-0008] | < 100 | 1000 to 10000 | – |
| COc1ccnc(Cn2c(=O)nc(Nc3cc4cn(C)nc4cc3Cl)n(Cc3cc(F)c(F)cc3F)c2=O)c1 [II-0252] | < 100 | 1000 to 10000 | – |
| Cn1cnc(Cn2c(=O)nc(Nc3cc4cn(C)nc4cc3Br)n(Cc3cc(F)c(F)c(F)c3)c2=O)n1 [II-0448] | < 100 | < 1000 | – |
| Cc1ccc(Cl)cc1Cn1c(Nc2cc3c(cc2Cl)nc2n3CCN2)nc(=O)n(-c2cncc(Cl)c2)c1=O [II-0095] | < 100 | < 1000 | – |
| Cn1cnc(Cn2c(=O)nc(Nc3cc4c(-n5cccn5)n(C)nc4cc3Cl)n(Cc3cc(F)c(F)cc3F)c2=O)n1 [II-0461] | < 100 | 1000 to 10000 | – |
| Cc1cncc(-n2c(=O)nc(Nc3cc4c(cc3F)nc(C)n4C)n(Cc3cc(F)c(F)c(F)c3)c2=O)c1 [II-0360] | < 100 | 1000 to 10000 | – |
| Cc1cncc(-n2c(=O)nc(Nc3ccc4nn(CC(F)F)cc4c3)n(Cc3ccc(F)c(C#N)c3)c2=O)c1 [Compound I-0355] | < 100 | < 1000 | IC50 (SARS-CoV-2 3CL protease; RapidFire MS): 8.7 nM; EC50 (SARS-CoV-2; [2]): 339 nM |

| Compound | IC50 (SARS-CoV-2 3CL protease; given as class symbols) [nM] | EC50 (SARS-CoV-2; [1]) [nM] | further results |
| --- | --- | --- | --- |
| Cn1cnc(Cn2c(=O)nc(Nc3cc4cn(CC(F)F)nc4cc3F)n(Cc3cc(F)c(F)c(F)c3)c2=O)n1 [II-0112] | < 100 | 1000 to 10000 | – |
| Cc1cncc(-n2c(=O)nc(Nc3cc4cn(C)nc4cc3Cl)n(Cc3cc(C#N)cnc3C)c2=O)c1 [II-0537] | < 100 | 1000 to 10000 | – |
| COc1ccc(Nc2nc(=O)n(-c3cncc4ccccc34)c(=O)n2Cc2cc(F)c(F)c(C#N)c2)cc1 [Compound I-0480] | – | – | IC50 (SARS-CoV-2 3CL protease; RapidFire MS): 6.5 nM; EC50 (SARS-CoV-2; [2]): 72.6 nM |
| O=c1[nH]cccc1Cn1c(=O)nc(NC2(c3ccccc3F)COC2)n(Cc2cc(F)c(F)c(F)c2)c1=O [II-0484] | – | – | IC50 (SARS-CoV-2 3CL protease; RapidFire MS): 3400 nM; EC50 (SARS-CoV-2; [2]): 14200 nM |
| Cn1cnc(Cn2c(=O)nc(Nc3cc4cn(CC(F)F)nc4cc3F)n(Cc3cc(Cl)c(F)cc3F)c2=O)n1 [II-0459] | < 100 | 1000 to 10000 | – |
| Cc1cncc(-n2c(=O)nc(Nc3ccc4oc(C)cc4c3)n(Cc3ccc(F)c(C#N)c3)c2=O)c1 [II-0196] | < 100 | < 1000 | – |
| COc1ccc(Nc2nc(=O)n(-c3nncc4cnn(C)c34)c(=O)n2Cc2cc(F)c(F)c(F)c2)cc1 [II-0401] | – | – | IC50 (SARS-CoV-2 3CL protease; RapidFire MS): 290 nM; EC50 (SARS-CoV-2; [2]): 2330 nM |
| Cc1cncc(-n2c(=O)nc(Nc3cc4cn(C)nc4cc3Cl)n(Cc3cc(C#N)ccc3N)c2=O)c1 [II-0585] | < 100 | 1000 to 10000 | – |
| Cn1cc2cc(Nc3nc(=O)n(Cc4cc(Cl)c[nH]c4=O)c(=O)n3Cc3cc(F)c(F)c(F)c3)c(Cl)cc2n1 [Compound I-0077] | < 100 | < 1000 | – |
| COc1ccc(Nc2nc(=O)n(Cc3ccc[nH]c3=O)c(=O)n2Cc2ccc(F)c(C#N)c2)c(F)c1 [Compound I-0332] | < 100 | 1000 to 10000 | – |
| Cc1cncc(-n2c(=O)nc(Nc3cc4sc(NCC(F)F)nc4cc3F)n(Cc3cc(F)c(F)c(C#N)c3)c2=O)c1 [II-0423] | < 100 | 1000 to 10000 | – |
| Cn1cnc(Cn2c(=O)nc(Nc3cc4oc(N)nc4cc3Cl)n(Cc3cc(F)c(F)cc3F)c2=O)n1 [II-0057] | < 100 | 1000 to 10000 | – |
| CNc1nc2ccc(Nc3nc(=O)n(-c4cncc(Cl)c4)c(=O)n3Cc3cc(F)c(F)c(C#N)c3)cc2s1 [II-0387] | < 100 | < 1000 | – |
| Cc1cncc(-n2c(=O)nc(Nc3cc4c(cc3Cl)OC(C)C4)n(Cc3ccc(F)c(C#N)c3)c2=O)c1 (stereo not shown) [II-0117] | < 100 | – | EC50 (SARS-CoV-2; class symbols): < 1000 nM |
| Cc1cncc(-n2c(=O)nc(Nc3cc4cn(C)nc4cc3Cl)n(Cc3cccc(F)c3C)c2=O)c1 [II-0171] | < 100 | < 1000 | – |
| Cc1cncc(-n2c(=O)nc(Nc3ccc4nn(CC(F)F)cc4c3)n(Cc3cc(C#N)ccc3Cl)c2=O)c1 [II-0570] | – | – | IC50 (SARS-CoV-2 3CL protease; RapidFire MS): 4.4 nM; EC50 (SARS-CoV-2; [2]): 600 nM |
| O=c1[nH]cc(Cl)cc1Cn1c(=O)nc(Nc2cc3cn(CCCO)nc3cc2Cl)n(Cc2cc(F)c(F)c(F)c2)c1=O [Compound I-0454] | < 100 | 1000 to 10000 | – |
| Cc1cncc(-n2c(=O)nc(Nc3cc4c(cc3Cl)nc3n4CCN3)n(Cc3ccc(F)c(C#N)c3)c2=O)c1 [II-0407] | – | – | IC50 (SARS-CoV-2 3CL protease; RapidFire MS): 3.8 nM; EC50 (SARS-CoV-2; [2]): 15000 nM |
| Cn1cnc(Cn2c(=O)nc(Nc3cc4cn(C)nc4cc3Cl)n(Cc3cc(Cl)ccc3F)c2=O)n1 [II-0361] | < 100 | < 1000 | – |
| Cn1cnc(Cn2c(=O)nc(Nc3cc4cn(Cc5ccccn5)nc4cc3Cl)n(Cc3cc(F)c(F)c(Cl)c3)c2=O)n1 [II-0006] | < 100 | 1000 to 10000 | – |
| CNc1nc2ccc(Nc3nc(=O)n(-c4cncc(Cl)c4)c(=O)n3Cc3ccc(F)c(C#N)c3)cc2s1 [II-0399] | – | < 1000 | – |
| Cc1cncc(-n2c(=O)[nH]/c(=N\c3cc4cn(C)nc4cc3Cl)n(Cc3cc(F)c(F)c(F)c3)c2=O)c1 [Compound I-0113] | – | – | EC50 (SARS-CoV-2; [2]): 177 nM |
| O=C(O)c1ccc(Oc2ccc(/N=c3\[nH]c(=O)n(-c4ccon4)c(=O)n3Cc3ccc(Cl)cc3)cc2)nc1 [Compound I-580, reference compound] | – | – | coronavirus replication inhibitory activity (SARS-CoV-2; at concentrations up to 50 μM, tested as in Test Example 1 (Reference Example 1)): did not show coronavirus replication inhibitory activity |
| Cc1cncc(-n2c(=O)nc(Nc3cc4cn(C)nc4cc3Cl)n(Cc3cc(F)c(F)cc3F)c2=O)c1 [Compound I-0361] | – | – | EC50 (SARS-CoV-2; [2]): 131 nM |
